SMILES strings stand for the structures.

For test [1], the target named is T1, AAK1 (amino acids T27-A365) (Homo sapiens, UniProt Q2M2I8).
T1 construct: against AAK1 (amino acids T27-A365); 6His (N, cleaved yes)
The test is described as follows: AAK1 pSENs assay. The conditions noted are these: class symbols; read-out: AAK1 pSENs: EIC50. The test is classed as biochemical. How it is done:
The recombinant proteins were independently expressed in Escherichia coli BL21(DE3) cells cultured in Luria-Bertani (LB) medium until OD600 reached 0.6-0.8, then cooled to 15° C. and supplemented with 0.5 mM isopropyl 1-thio-D-galactopyranoside (IPTG) induce protein expression 16 h. Cells were harvested and resuspended in lysis buffer (50 mM HEPES pH 7.5, 500 mM NaCl, 5 mM imidazole, 5% glycerol, 0.5 mM Tris (2-carboxyethyl) phosphine (TCEP), cOmplete Protease Inhibitor Tablet (Roche)) and lysed by microfludics high pressure homogenizer (UH-06, Union-Biotech). Proteins were purified using […] chromatography (His FF column, Bestchrom) and eluted stepwise in binding buffer with 20-300 mM imidazole. Removal of the hexahistidine tag was performed at 4° C. overnight using recombinant TEV protease and reacted with BirA to obtain the corresponding biotinylated-AAK1, BIKE or GAK proteins. Further separated in the reverse Strep column (Strep-Tactin® XT, IBA). The Biotin elution sample was collected containing untagged biotinylated protein was then purified by Ion-exchange chromatography (Mono Q 10/100 GL, Cytiva) and Size-exclusion chromatography (HiLoad 16/600 Superdex 200 pg, Cytiva). The pure protein was stored in a storage buffer 50 mM HEPES (pH 7.5), 300 mM NaCl, 5% glycerol at −80° C. Protein were characterized by SDS-PAGE, LC-MS and aSEC.
This example describes one illustrative method for determining the IC50 of the compounds of the present invention against AAK1 (amino acids T27-A365). AAK1 protein was dissolved at 20 nM in 1× enzyme solution (50 mM HEPES pH7.5, 10 mM MgCl2, 1 mM DTT, 1% glycerol, 0.5 mM EGTA, 0.01% Briji35, 0.02% BSA) and 12.5 ul was incubated with 250 nl DMSO or 250 nl compound in DMSO at 25° C. for 15 min. The reaction was started by addition of 12.5 ul of 30 uM AQT0759 (Assayquant, CSKS-AQT0759B) and 70 uM ATP which were diluted in 1× substrate dilution buffer (50 mM HEPES pH7.5, 10 mM MgCl2, 1 mM DTT, 1% glycerol, 0.5 mM EGTA, 0.01% Briji35).

For test [2], the target named is AAK1 (Homo sapiens, UniProt Q2M2I8). In words: pAP2M1 cell-based assay (in-cell Western). The settings on record: Hela cells co-transfected with AP2M1 and AAK1, 3 hr treatment; class symbols; read-out: AAK1 In-cell Western: IC50. The text has this:
pAP2M1 Cell-Based Assay (in-Cell Western):
The plate was read on Licor Odyssey CLx imaging system (LICOR) to acquire fluorescence intensity at 700 channel and 800 channel.
Data analysis: Fluorescence intensity at 700 channel served as internal standard and 800 channel were normalized with 700 channel.

T1 sequence (Q2M2I8 27-365): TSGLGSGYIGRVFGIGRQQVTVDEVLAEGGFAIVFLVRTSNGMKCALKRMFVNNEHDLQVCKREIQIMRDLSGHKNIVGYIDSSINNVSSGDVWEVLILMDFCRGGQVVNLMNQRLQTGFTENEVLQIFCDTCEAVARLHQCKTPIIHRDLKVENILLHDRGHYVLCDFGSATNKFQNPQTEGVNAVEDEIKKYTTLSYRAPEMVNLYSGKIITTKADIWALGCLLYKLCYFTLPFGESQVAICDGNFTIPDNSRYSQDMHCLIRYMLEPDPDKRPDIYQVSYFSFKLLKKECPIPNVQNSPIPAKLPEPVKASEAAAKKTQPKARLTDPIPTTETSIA
Sequence of AAK1 (Q2M2I8 whole entry): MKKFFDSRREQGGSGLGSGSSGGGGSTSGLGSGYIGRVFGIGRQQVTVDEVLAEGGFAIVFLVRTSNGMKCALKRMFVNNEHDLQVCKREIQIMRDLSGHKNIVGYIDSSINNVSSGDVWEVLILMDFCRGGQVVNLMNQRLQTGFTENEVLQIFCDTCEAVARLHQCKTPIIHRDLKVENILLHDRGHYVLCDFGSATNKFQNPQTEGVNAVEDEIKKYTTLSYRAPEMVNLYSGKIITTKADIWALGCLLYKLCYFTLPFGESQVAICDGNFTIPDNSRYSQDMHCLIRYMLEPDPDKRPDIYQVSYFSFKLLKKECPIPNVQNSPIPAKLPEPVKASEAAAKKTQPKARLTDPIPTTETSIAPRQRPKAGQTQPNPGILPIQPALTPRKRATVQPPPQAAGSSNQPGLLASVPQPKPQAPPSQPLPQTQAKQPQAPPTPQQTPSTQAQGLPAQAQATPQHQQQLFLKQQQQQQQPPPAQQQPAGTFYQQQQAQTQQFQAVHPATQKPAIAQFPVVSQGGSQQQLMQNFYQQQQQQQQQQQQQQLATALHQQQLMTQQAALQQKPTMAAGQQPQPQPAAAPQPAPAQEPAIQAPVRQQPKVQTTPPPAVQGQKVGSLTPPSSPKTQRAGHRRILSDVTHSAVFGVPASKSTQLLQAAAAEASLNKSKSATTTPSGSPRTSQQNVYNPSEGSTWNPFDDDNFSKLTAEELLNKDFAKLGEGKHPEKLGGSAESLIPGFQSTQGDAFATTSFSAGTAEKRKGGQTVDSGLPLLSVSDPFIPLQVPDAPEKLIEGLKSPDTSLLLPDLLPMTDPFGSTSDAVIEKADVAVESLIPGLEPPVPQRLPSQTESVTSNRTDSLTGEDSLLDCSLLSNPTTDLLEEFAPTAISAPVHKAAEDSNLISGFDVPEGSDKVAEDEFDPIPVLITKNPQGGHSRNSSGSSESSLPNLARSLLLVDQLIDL

Regarding `O=C1NCC[C@@H]1OC(=O)N1CCN(c2ccn3ncc(-c4cccnc4OC4CC4)c3n2)CC1` [Compound I-24, [(3S)-2-Oxopyrrolidin-3-yl]-4-[3-[2-(cyclopropoxy)-3-pyridyl]pyrazolo[1,5-a]pyrimidin-5-yl]piperazine-1-carboxylate], the IC50 was 0.051 to 0.15 µM in test [1] and > 1.5 µM in test [2].
Regarding `Cc1nn2ccc(N3CCN(C(=O)O[C@H]4CC(=O)N(C)C4)CC3)nc2c1-c1cccnc1OC1CC1` [Compound I-108, [(3S)-1-methyl-5-oxo-pyrrolidin-3-yl]-4-[3-[2-(cyclopropoxy)-3-pyridyl]-2-methyl-pyrazolo[1,5-a]pyrimidin-5-yl]piperazine-1-carboxylate], the IC50 in test [1] and in test [2] was > 1.5 µM throughout.
Consider `CC(C)(C)OC(=O)N1CC(Nc2ncccc2-c2cnn3ccc(N4CCN(C(=O)O[C@@H]5CNC(=O)C5)CC4)nc23)C1` [Compound I-48, [(3S)-5-oxopyrrolidin-3-yl]4-[3-[2-[(1-tert-butoxycarbonylazetidin-3-yl)amino]-3-pyridyl]pyrazolo[1,5-a]pyrimidin-5-yl]piperazine-1-carboxylate], for which the IC50 in test [1] was 0.501 to 1.5 µM; in test [2], > 1.5 µM.
For `COC(=O)N1CC(Oc2ncccc2-c2cnn3ccc(N4CCN(C(=O)O[C@@H]5CC(=O)N(C)C5)CC4)nc23)C1` [Compound I-83, [(3R)-1-methyl-5-oxo-pyrrolidin-3-yl]4-[3-[2-(1-methoxycarbonylazetidin-3-yl)oxy-3-pyridyl]pyrazolo[1,5-a]pyrimidin-5-yl]piperazine-1-carboxylate], the IC50 fell in the range of 0.001 to 0.05 µM in test [1] and 0.501 to 1.5 µM in test [2].
Take `COc1cn2ncc(-c3cccnc3OC3CC3)c2nc1N1CCN(C(=O)O[C@H]2CC(=O)N(C)C2)CC1` [Compound I-110-9, [(3S)-1-methyl-5-oxo-pyrrolidin-3-yl]-4-[3-[2-(cyclopropoxy)-3-pyridyl]-6-methoxy-pyrazolo[1,5-a]pyrimidin-5-yl]piperazine-1-carboxylate]: the IC50 in test [1] and in test [2] was > 1.5 µM in each case.
In the case of `O=C1C[C@H](OC(=O)N[C@@H]2CCN(c3ccn4ncc(-c5cccnc5OC5CC5)c4n3)C2)CN1` [Compound I-54, [(3S)-5-oxopyrrolidin-3-yl]N-[(3R)-1-[3-[2-(cyclopropoxy)-3-pyridyl]pyrazolo[1,5-a]pyrimidin-5-yl]pyrrolidin-3-yl]carbamate], the IC50 is 0.501 to 1.5 µM in test [1] and > 1.5 µM in test [2].
For `NC(=O)[C@@H]1CN(c2ccn3ncc(-c4cccnc4OC4CC4)c3n2)CCN1C(=O)O[C@@H]1CNC(=O)C1` [Compound I-41-6, (S)-5-Oxopyrrolidin-3-yl-(S)-2-carbamoyl-4-(3-(2-cyclopropoxypyridin-3-yl)pyrazolo[1,5-a]pyrimidin-5-yl)piperazine-1-carboxylate], in that order: 0.151 to 0.5 µM and > 1.5 µM.
On to `O=C1C[C@H](OC(=O)N2CCN(c3ccn4ncc(-c5cccnc5OC5CC5)c4n3)C[C@H]2C(=O)O)CN1` [Compound I-41-4C, (S)-4-(3-(2-Cyclopropoxypyridin-3-yl)pyrazolo[1,5-a]pyrimidin-5-yl)-1-((((S)-5-oxopyrrolidin-3-yl)oxy)carbonyl)piperazine-2-carboxylic acid], for which the IC50 in test [1] and in test [2] was > 1.5 µM throughout.
Turning to `N#C[C@@H]1CN(c2ccn3ncc(-c4cccnc4OC4CC4)c3n2)CCN1C(=O)O[C@@H]1CNC(=O)C1` [Compound I-41, (S)-5-Oxopyrrolidin-3-yl (S)-2-cyano-4-(3-(2-cyclopropoxypyridin-3-yl)pyrazolo[1,5-a]pyrimidin-5-yl)piperazine-1-carboxylate], the results for the IC50 in test [1] and in test [2] were 0.151 to 0.5 µM and > 1.5 µM, respectively.
Regarding `O=C(O[C@@H]1CC(=O)N(C2CCNCC2)C1)N1CCN(c2ccn3ncc(-c4cccnc4OC4CC4)c3n2)CC1` [Compound I-33, (R)-5-Oxo-1-(piperidin-4-yl)pyrrolidin-3-yl 4-(3-(2-cyclopropoxypyridin-3-yl)pyrazolo[1,5-a]pyrimidin-5-yl)piperazine-1-carboxylate], the IC50 in test [1] and in test [2] was > 1.5 µM each time.
In the case of `CN1C[C@@H](OC(=O)N2CCN(c3nc4c(-c5cccnc5OC5CCCCC5)cnn4cc3F)CC2)CC1=O` [Compound I-123, [(3S)-1-methyl-5-oxo-pyrrolidin-3-yl]-4-[3-[2-(cyclohexoxy)-3-pyridyl]-6-fluoro-pyrazolo[1,5-a]pyrimidin-5-yl]piperazine-1-carboxylate], the IC50 in test [1] was 0.151 to 0.5 µM; in test [2] it was > 1.5 µM.
For `CC1(OC(=O)N2CCN(c3ccn4ncc(-c5cccnc5OC5CCC5)c4n3)CC2)COC1` [Compound I-17, (3-Methyloxetan-3-yl) 4-[3-[2-(cyclobutoxy)-3-pyridyl]pyrazolo[1,5-a]pyrimidin-5-yl]piperazine-1-carboxylate], in that order: 0.001 to 0.05 µM and 0.501 to 1.5 µM.
For `CN1CC(Oc2ncccc2-c2cnn3ccc(N4CCN(C(=O)O[C@@H]5CNC(=O)C5)CC4)nc23)C1` [Compound I-44, (S)-5-Oxopyrrolidin-3-yl 4-(3-(2-((1-methylazetidin-3-yl)oxy)pyridin-3-yl)pyrazolo[1,5-a]pyrimidin-5-yl)piperazine-1-carboxylate], in that order: > 1.5 µM and > 1.5 µM.
For the molecule `O=C1NCC[C@H]1OC(=O)N1CCN(c2ccn3ncc(-c4cccnc4OC4CC4)c3n2)CC1` [Compound I-23, [(3R)-2-oxopyrrolidin-3-yl]-4-[3-[2-(cyclopropoxy)-3-pyridyl]pyrazolo[1,5-a]pyrimidin-5-yl]piperazine-1-carboxylate], the values for the IC50 in test [1] and in test [2] were 0.051 to 0.15 µM and > 1.5 µM, respectively.
In the same order, the values of `O=C1C[C@H](OC(=O)N2CCN(c3ccn4ncc(-c5cccnc5NC5CNC5)c4n3)CC2)CN1` [Compound I-49, (S)-5-oxopyrrolidin-3-yl4-(3-(2-(azetidin-3-ylamino)pyridin-3-yl)pyrazolo[1,5-a]pyrimidin-5-yl)piperazine-1-carboxylate] are > 1.5 µM and > 1.5 µM.
In the case of `O=C1C[C@H](OC(=O)N[C@H]2CCN(c3ccn4ncc(-c5cccnc5OC5CC5)c4n3)C2)CN1` [Compound I-55, (S)-5-oxopyrrolidin-3-yl ((S)-1-(3-(2-cyclopropoxypyridin-3-yl)pyrazolo[1,5-a]pyrimidin-5-yl)pyrrolidin-3-yl)carbamate], the IC50 in test [1] is 0.151 to 0.5 µM; in test [2], > 1.5 µM.
Take `CN(C)CCN1CC[C@@](C)(OC(=O)N2CCN(c3ccn4ncc(-c5cccnc5OC5CC5)c4n3)CC2)C1` [Compound I-53, (R)-1-(2-(dimethylamino)ethyl)-3-(methylpyrrolidin-3-yl)-4-(3-(2-cyclopropoxypyridin-3-yl)pyrazolo[1,5-a]pyrimidin-5-yl)piperazine-1-carboxylate]: the IC50 was in the range of 0.001 to 0.05 µM in test [1] and 0.151 to 0.5 µM in test [2].
Consider `Cc1cn2ncc(-c3cccnc3OC3CC3)c2nc1N1CCN(C(=O)O[C@H]2CC(=O)N(C)C2)CC1` [Compound I-111, [(3S)-1-methyl-5-oxo-pyrrolidin-3-yl]-4-[3-[2-(cyclopropoxy)-3-pyridyl]-6-methyl-pyrazolo[1,5-a]pyrimidin-5-yl]piperazine-1-carboxylate], for which the results for the IC50 in test [1] and in test [2] were 0.501 to 1.5 µM and > 1.5 µM, respectively.
Take `COC(=O)[C@@H]1CN(c2ccn3ncc(-c4cccnc4OC4CC4)c3n2)CCN1C(=O)O[C@@H]1CNC(=O)C1` [Compound I-41-5, 2-Methyl 1-((S)-5-oxopyrrolidin-3-yl) (S)-4-(3-(2-cyclopropoxypyridin-3-yl)pyrazolo[1,5-a]pyrimidin-5-yl)piperazine-1,2-dicarboxylate]: the IC50 was 0.151 to 0.5 µM in test [1] and > 1.5 µM in test [2].
In the same order, the values of `CC(C)Nc1ncccc1-c1cnn2ccc(N3CCN(C(=O)O[C@@H]4CNC(=O)C4)CC3)nc12` [Compound I-47, [(3S)-5-oxopyrrolidin-3-yl]4-[3-[2-(isopropylamino)-3-pyridyl]pyrazolo[1,5-a]pyrimidin-5-yl]piperazine-1-carboxylate] are > 1.5 µM and > 1.5 µM.

(Values after US20250122207A1, “AP2 ASSOCIATED KINASE 1 INHIBITORS AND USES THEREOF” (Satellos Bioscience Inc., priority 2023, published 2025).)
